{
  "source": "patent US20260257993A1",
  "about": "“COMPOUND, RUBBER BLEND CONTAINING THE COMPOUND, VEHICLE TIRE COMPRISING THE RUBBER BLEND IN AT LEAST ONE COMPONENT, PROCESS FOR PRODUCING THE COMPOUND, AND USE OF THE COMPOUND AS AN AGEING PROTECTANT AND/OR ANTIOZONANT AND/OR DYE” (Continental Reifen Deutschland GmbH, priority 2021, published 2026)",
  "assay": "Measurement of oxidation induction time (OIT) by DSC",
  "settings": "with liquid polyisoprene LIR-50, isothermal 180° C., O2 atmosphere 50 mL/min, DSC peak",
  "protocol": "The compounds of formula II) and III) were investigated under laboratory conditions for their potential protective effect as aging stabilizers by measurement of the oxidation induction time.\nTo this end the compounds of formula II) and III) and 6-PPD in each case together with a polymer (liquid synthetic polyisoprene (IR), LIR-50, Kuraray, weight average molecular weight distribution Mw=54 000 g/mol, glass transition temperature Tg=−63° C.) were heated at constant temperature (180° C.) until onset of oxidation (start temperature 35° C., heating to 170° C. at a heating rate of 20 K/min (kelvin per minute), heating to 180° C. at a heating rate of 1 K/min; purge gas: nitrogen (N2), volume flow 50 mL/min). The specimen was isothermally maintained for 5 minutes at 180° C. under an N2 atmosphere and the atmosphere was then switched to an 02 atmosphere (volume flow 50 mL/min).\nOxidation was determined via a peak using DSC (differential scanning calorimetry).\nThe time in minutes to oxidation was measured.",
  "data": [
    {"smiles": "CC(C)CC(C)Nc1ccc2[nH]c(-c3ccccc3)cc2c1", "note": "(stereo not drawn) [formula II), 2-phenyl-5-(1,3-dimethylbutylamino)-1H-indole]", "values": [
      {"measurement": "Oxidation induction time: time to oxidation", "value": "105 ± 10", "unit": "min"}
    ]},
    {"smiles": "CC(C)CC(C)Nc1ccc2[nH]c(C3CCCCC3)cc2c1", "note": "(stereo not drawn) [formula III), 2-cyclohexyl-5-(1,3-dimethylbutylamino)-1H-indole]", "values": [
      {"measurement": "Oxidation induction time: time to oxidation", "value": "205 ± 10", "unit": "min"}
    ]},
    {"smiles": "CC(C)CC(C)Nc1ccc(Nc2ccccc2)cc1", "note": "(stereo not drawn) [6-PPD, N-(1,3-dimethylbutyl)-N′-phenyl-p-phenylenediamine, reference compound]", "values": [
      {"measurement": "Oxidation induction time: time to oxidation", "value": "116 ± 10", "unit": "min"}
    ]}
  ]
}
